Reference: patent US10005771B2, “Bicyclic derivatives having β2 adrenergic agonist and M3 muscarinic antagonist activities” (Almirall, S.A., priority 2014, dated 2018)

Tests used:
[1] = target: T1, human adrenergic β2 receptor (Homo sapiens, UniProt P07550); assay: Human adrenergic β2 receptor binding assay (3H-CGP12177, Sf9 membranes); conditions: membranes from Sf9 cells, 0.6 nM 3H-CGP12177, 60 minutes at room temperature
T1 construct: purchased Perkin Elmer; host or cells: Sf9 cells
Method: Test 1: Human Adrenergic β1 and β2 Receptor Binding Assays
The study of binding to human adrenergic beta1 and beta2 receptors was performed using commercial membranes prepared from Sf9 cells where they are overexpressed (Perkin Elmer). The membrane suspensions (16 μg/well for beta1 and 5 μg/well for beta2) in assay buffer (75 mM Tris/HCl with 12.5 mM MgCl2 and 2 mM EDTA pH=7.4) were incubated with 0.14 or 0.6 nM of 3H-CGP12177 (Amersham) for beta 1 and beta 2 receptors respectively in a final volume of 250 μl, in GFC Multiscreen 96 well plates (Millipore) previously treated with assay buffer containing 0.3% PEI (Sigma). Non specific binding was measured in the presence of 1 μM propanolol. Incubation was maintained for 60 minutes at room temperature and with gentle shaking. The binding reactions were terminated by filtration and washing with 2.5 volumes of Tris/HCl 50 mM pH=7.4. The affinity of each test compound to the receptor was determined by using ten different concentrations ran in duplicate. IC50s were calculated using Activity Base software from IDBS and the four parameters-log equation.

[2] = target: T2, human muscarinic M3 receptors (Homo sapiens, UniProt P20309); assay: Human muscarinic M3 receptors binding assay ([3H]-NMS, CHO-K1 membranes); conditions: membranes from CHO-K1 cells, [3H]-NMS radioligand, two hours incubation
T2 construct: purchased Perkin Elmer; host or cells: CHO-K1 cells
Method: Test 2: Human Muscarinic M3 Receptors Binding Assays
The study of binding to human muscarinic M3 receptors was performed using commercial membranes (Perkin Elmer) prepared from CHO-K1 cells.
Radioligand binding experiments were conducted in 96 polypropylene well plates in a total volume of 200 μl. All reagents were dissolved in assay binding buffer (PBS with calcium and magnesium, SIGMA), except compounds that were dissolved in DMSO 100%. Non-specific binding (NSB) was measured in the presence of 1 μM atropine. [3H]-NM, used as the radioligand was incubated with membranes that express human muscarinic M3 at concentration of 4.9 μg/well.
After an incubation period of two hours with gentle shaking, 150 μl of the reaction mix were transferred to 96 GF/C filter plates (Millipore), previously treated with wash buffer (Tris 50 mM; NaCl 100 mM; pH: 7.4), containing 0.05% PEI (Sigma) during one hour. Bound and free [3H]-NMS were separated by rapid vacuum filtration in a manifold from Millipore and washed four times with ice cold wash buffer. After drying 30 min, 30 μl of OPTIPHASE Supermix were added to each well and radioactivity quantified using a Microbeta microplate scintillation counter.
The affinity of each test compound to the receptor was determined by using ten different concentrations ran in duplicate. IC50s were calculated using Activity Base software from IDBS and the four parameters-log equation.

T1 sequence (P07550 whole entry): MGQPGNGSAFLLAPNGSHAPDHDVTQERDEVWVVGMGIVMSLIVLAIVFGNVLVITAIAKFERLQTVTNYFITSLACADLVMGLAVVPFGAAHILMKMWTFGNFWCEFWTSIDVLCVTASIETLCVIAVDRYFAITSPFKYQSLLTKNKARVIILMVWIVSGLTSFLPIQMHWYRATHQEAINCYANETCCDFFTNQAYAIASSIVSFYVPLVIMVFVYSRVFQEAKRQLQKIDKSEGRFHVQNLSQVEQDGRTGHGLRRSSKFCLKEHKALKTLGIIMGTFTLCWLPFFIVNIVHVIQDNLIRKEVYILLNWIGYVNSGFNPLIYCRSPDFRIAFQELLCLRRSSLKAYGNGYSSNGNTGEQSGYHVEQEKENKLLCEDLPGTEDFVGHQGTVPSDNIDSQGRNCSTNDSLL
T2 sequence (P20309 whole entry): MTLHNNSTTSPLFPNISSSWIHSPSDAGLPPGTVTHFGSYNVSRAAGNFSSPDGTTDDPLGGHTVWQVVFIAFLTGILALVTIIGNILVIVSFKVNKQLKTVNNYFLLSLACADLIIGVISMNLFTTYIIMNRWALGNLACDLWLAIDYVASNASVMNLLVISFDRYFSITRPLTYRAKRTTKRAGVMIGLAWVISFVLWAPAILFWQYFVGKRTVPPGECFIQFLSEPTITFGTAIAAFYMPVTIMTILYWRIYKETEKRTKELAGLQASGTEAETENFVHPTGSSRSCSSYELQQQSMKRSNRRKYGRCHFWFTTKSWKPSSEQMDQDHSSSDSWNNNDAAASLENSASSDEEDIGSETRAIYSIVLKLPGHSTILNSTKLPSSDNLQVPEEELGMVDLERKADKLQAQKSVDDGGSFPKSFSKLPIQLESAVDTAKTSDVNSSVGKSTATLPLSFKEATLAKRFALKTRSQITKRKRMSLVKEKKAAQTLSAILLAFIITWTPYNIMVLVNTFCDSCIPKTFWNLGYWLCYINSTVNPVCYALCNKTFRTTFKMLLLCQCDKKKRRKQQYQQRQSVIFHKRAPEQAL

SMILES: O=C(O[C@H]1CN2CCC1CC2)C1(c2cccc(CCCCn3c(=O)oc4cc(CNC[C@H](O)c5ccc(O)c6[nH]c(=O)ccc56)ccc43)c2)CCCCC1 [Example 1, (3R)-1-azabicyclo[2.2.2]oct-3-yl 1-(3-{4-[6-({[(2R)-2-hydroxy-2-(8-hydroxy-2-oxo-1,2-dihydroquinolin-5-yl)ethyl]amino}methyl)-2-oxo-1,3-benzoxazol-3(2H)-yl]butyl}phenyl)cyclohexanecarboxylate]
- IC50 [1]: 4.3 nM
- IC50 [2]: 1.6 nM

SMILES: COc1cc(NC(=O)CCCc2cccc(C3(C(=O)O[C@H]4CN5CCC4CC5)CCCCC3)c2)c(Cl)cc1CNC[C@H](O)c1ccc(O)c2[nH]c(=O)ccc12 [Example 2, (3R)-1-azabicyclo[2.2.2]oct-3-yl 1-[3-(4-{[2-chloro-4-({[(2R)-2-hydroxy-2-(8-hydroxy-2-oxo-1,2-dihydroquinolin-5-yl)ethyl]amino}methyl)-5-methoxyphenyl]amino}-4-oxobutyl)phenyl]cyclohexanecarboxylate]
- IC50 [1]: 3 nM
- IC50 [2]: 0.22 nM

SMILES: O=C(CCCc1cccc(C2(C(=O)O[C@H]3CN4CCC3CC4)CCCCC2)c1)N[C@H]1CC[C@H](CNC[C@H](O)c2ccc(O)c3[nH]c(=O)ccc23)CC1 [Example 3, (3R)-1-azabicyclo[2.2.2]oct-3-yl 1-[3-(4-{[trans-4-({[(2R)-2-hydroxy-2-(8-hydroxy-2-oxo-1,2-dihydroquinolin-5-yl)ethyl]amino}methyl)cyclohexyl]amino}-4-oxobutyl)phenyl]cyclohexanecarboxylate]
- IC50 [1]: 4.2 nM
- IC50 [2]: 1.7 nM

SMILES: COc1cc(OCC(=O)N(C)CCCc2cccc(C3(C(=O)O[C@H]4CN5CCC4CC5)CCCCC3)c2)c(Cl)cc1CNC[C@H](O)c1ccc(O)c2[nH]c(=O)ccc12 [Example 4, (3R)-1-azabicyclo[2.2.2]oct-3-yl 1-(3-{3-[{[2-chloro-4-({[(2R)-2-hydroxy-2-(8-hydroxy-2-oxo-1,2-dihydroquinolin-5-yl)ethyl]amino}methyl)-5-methoxyphenoxy]acetyl}(methyl)amino]propyl}phenyl)cyclohexanecarboxylate]
- IC50 [1]: 6.6 nM
- IC50 [2]: 0.74 nM

SMILES: O=C(O[C@H]1CN2CCC1CC2)C1(c2cccc(CCCCn3nnc4cc(CNC[C@H](O)c5ccc(O)c6[nH]c(=O)ccc56)ccc43)c2)CCCCC1 [Example 5, (3R)-1-azabicyclo[2.2.2]oct-3-yl 1-(3-{4-[5-({[(2R)-2-hydroxy-2-(8-hydroxy-2-oxo-1,2-dihydroquinolin-5-yl)ethyl]amino}methyl)-1H-1,2,3-benzotriazol-1-yl]butyl}phenyl)cyclohexanecarboxylate]
- IC50 [1]: 28 nM
- IC50 [2]: 1.1 nM

SMILES: O=C(CCCc1cccc(C2(C(=O)O[C@H]3CN4CCC3CC4)CCCCC2)c1)NCCCCCNC[C@H](O)c1ccc(O)c2[nH]c(=O)ccc12 [Example 7, (3R)-1-azabicyclo[2.2.2]oct-3-yl 1-(3-{4-[(5-{[(2R)-2-hydroxy-2-(8-hydroxy-2-oxo-1,2-dihydroquinolin-5-yl)ethyl]amino}pentyl)amino]-4-oxobutyl}phenyl)cyclo hexanecarboxylate]
- IC50 [1]: 6.7 nM
- IC50 [2]: 1.5 nM

SMILES: COc1cc(C(=O)NCCCCc2cccc(C3(C(=O)O[C@H]4CN5CCC4CC5)CCCCC3)c2)c(Cl)cc1CNC[C@H](O)c1ccc(O)c2[nH]c(=O)ccc12 [Example 9, (3R)-1-azabicyclo[2.2.2]oct-3-yl 1-[3-(4-{[2-chloro-4-({[(2R)-2-hydroxy-2-(8-hydroxy-2-oxo-1,2-dihydroquinolin-5-yl)ethyl]amino}methyl)-5-methoxybenzoyl]amino}butyl)phenyl]cyclohexanecarboxylate]
- IC50 [1]: 3.5 nM
- IC50 [2]: 0.95 nM

SMILES: COc1cc(OCC(=O)OCCCc2cccc(C3(C(=O)O[C@H]4CN5CCC4CC5)CCCCC3)c2)c(Cl)cc1CNC[C@H](O)c1ccc(O)c2[nH]c(=O)ccc12 [Example 10, (3R)-1-azabicyclo[2.2.2]oct-3-yl 1-{3-[3-({[2-chloro-4-({[(2R)-2-hydroxy-2-(8-hydroxy-2-oxo-1,2-dihydroquinolin-5-yl)ethyl]amino}methyl)-5-methoxyphenoxy]acetyl}oxy)propyl]phenyl}cyclohexanecarboxylate]
- IC50 [1]: 7.3 nM
- IC50 [2]: 0.88 nM

SMILES: O=C(CCCc1cccc(C2(C(=O)O[C@H]3CN4CCC3CC4)CCCCC2)c1)Nc1ccc(CNC[C@H](O)c2ccc(O)c3[nH]c(=O)ccc23)nc1 [Example 11, (3R)-1-azabicyclo[2.2.2]oct-3-yl 1-[3-(4-{[6-({[(2R)-2-hydroxy-2-(8-hydroxy-2-oxo-1,2-dihydroquinolin-5-yl)ethyl]amino}methyl)pyridin-3-yl]amino}-4-oxobutyl)phenyl]cyclohexanecarboxylate]
- IC50 [1]: 23 nM
- IC50 [2]: 0.49 nM

SMILES: COc1cc(C(=O)N(C)CCCc2cccc(C3(C(=O)O[C@H]4CN5CCC4CC5)CCCCC3)c2)c(Cl)cc1CNC[C@H](O)c1ccc(O)c2[nH]c(=O)ccc12 [Example 12, (3R)-1-azabicyclo[2.2.2]oct-3-yl 1-(3-{3-[[2-chloro-4-({[(2R)-2-hydroxy-2-(8-hydroxy-2-oxo-1,2-dihydroquinolin-5-yl)ethyl]amino}methyl)-5-methoxybenzoyl](methyl)amino]propyl}phenyl)cyclohexanecarboxylate]
- IC50 [1]: 10 nM
- IC50 [2]: 2.1 nM

SMILES: COc1cc(C(=O)OCCCc2cccc(C3(C(=O)O[C@H]4CN5CCC4CC5)CCCCC3)c2)c(Cl)cc1CNC[C@H](O)c1ccc(O)c2[nH]c(=O)ccc12 [Example 13, 3-[3-(1-{[(3R)-1-azabicyclo[2.2.2]oct-3-yloxy]carbonyl}cyclohexyl)phenyl]propyl 2-chloro-4-({[(2R)-2-hydroxy-2-(8-hydroxy-2-oxo-1,2-dihydroquinolin-5-yl)ethyl]amino}methyl)-5-methoxybenzoate]
- IC50 [1]: 4.4 nM
- IC50 [2]: 0.62 nM

SMILES: COc1cc(OCC(=O)OC2CCC(Cc3cccc(C4(C(=O)O[C@H]5CN6CCC5CC6)CCCCC4)c3)CC2)c(Cl)cc1CNC[C@H](O)c1ccc(O)c2[nH]c(=O)ccc12 (stereo partly drawn) [Example 14, (3R)-1-azabicyclo[2.2.2]oct-3-yl 1-(3-{[4-({[2-chloro-4-({[(2R)-2-hydroxy-2-(8-hydroxy-2-oxo-1,2-dihydroquinolin-5-yl)ethyl]amino}methyl)-5-methoxyphenoxy]acetyl}oxy)cyclohexyl]methyl}phenyl)cyclohexanecarboxylate]
- IC50 [1]: 9 nM
- IC50 [2]: 7.1 nM

SMILES: COc1cc(NC(=O)CCCc2cccc(C3(C(=O)OCC45CCN(CC4)CC5)CCCCC3)c2)c(Cl)cc1CNC[C@H](O)c1ccc(O)c2[nH]c(=O)ccc12 [Example 18, 1-azabicyclo[2.2.2]oct-4-yl methyl 1-[3-(4-{[2-chloro-4-({[(2R)-2-hydroxy-2-(8-hydroxy-2-oxo-1,2-dihydroquinolin-5-yl)ethyl]amino}methyl)-5-methoxyphenyl]amino}-4-oxobutyl)phenyl]cyclohexanecarboxylate]
- IC50 [1]: 2.3 nM
- IC50 [2]: 0.14 nM

SMILES: COc1cc(C(=O)NCCCc2cccc(C3(C(=O)O[C@H]4CN5CCC4CC5)CCCCC3)c2)c(Cl)cc1CNC[C@H](O)c1ccc(O)c2[nH]c(=O)ccc12 [Example 20, (3R)-1-azabicyclo[2.2.2]oct-3-yl 1-[3-(3-{[2-chloro-4-({[(2R)-2-hydroxy-2-(8-hydroxy-2-oxo-1,2-dihydroquinolin-5-yl)ethyl]amino}methyl)-5-methoxybenzoyl]amino}propyl)phenyl]cyclohexanecarboxylate]
- IC50 [1]: 3.8 nM
- IC50 [2]: 0.14 nM
